Data: PubChem BioAssay (NCI)
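Exposure lasted 48 hours, with cells grown in 96-well plates and compounds tested at five concentrations. GI50 is the concentration that inhibits growth by half. TGI is the concentration that stops growth completely.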

What was measured:
Experiment in all cases: NCI tumour cell line growth inhibition, 48 h
UACC-257 melanoma = tested on: UACC-257 melanoma
SF-539 CNS = tested on: SF-539 CNS
HCT-116 colon = tested on: HCT-116 colon
OVCAR-8 ovarian = tested on: OVCAR-8 ovarian
K-562 leukemia = tested on: K-562 leukemia
MDA-MB-231 breast = tested on: MDA-MB-231 breast
EKVX NSCLC = tested on: EKVX NSCLC
NCI-H522 lung = tested on: NCI-H522 lung
M14 melanoma = tested on: M14 melanoma
ACHN renal = tested on: ACHN renal
SK-MEL-5 melanoma = tested on: SK-MEL-5 melanoma
SNB-19 CNS = tested on: SNB-19 CNS
HCT-15 colon = tested on: HCT-15 colon
RXF 393 renal = tested on: RXF 393 renal
HS 578T breast = tested on: HS 578T breast
T-47D breast = tested on: T-47D breast
BT-549 breast = tested on: BT-549 breast
RPMI-8226 leukemia = tested on: RPMI-8226 leukemia
HT29 colon = tested on: HT29 colon
DU-145 prostate = tested on: DU-145 prostate
HCC-2998 colon = tested on: HCC-2998 colon
OVCAR-4 ovarian = tested on: OVCAR-4 ovarian
IGROV1 ovarian = tested on: IGROV1 ovarian
OVCAR-5 ovarian = tested on: OVCAR-5 ovarian
A549 NSCLC = tested on: A549 NSCLC
MALME-3M melanoma = tested on: MALME-3M melanoma
UACC-62 melanoma = tested on: UACC-62 melanoma
TK-10 renal = tested on: TK-10 renal
U251 CNS = tested on: U251 CNS
UO-31 renal = tested on: UO-31 renal
HOP-92 NSCLC = tested on: HOP-92 NSCLC
NCI-H226 lung = tested on: NCI-H226 lung
SK-MEL-28 melanoma = tested on: SK-MEL-28 melanoma
CAKI-1 renal = tested on: CAKI-1 renal
SR leukemia = tested on: SR leukemia
SNB-75 CNS = tested on: SNB-75 CNS
LOX IMVI melanoma = tested on: LOX IMVI melanoma
MOLT-4 leukemia = tested on: MOLT-4 leukemia
NCI-H460 lung = tested on: NCI-H460 lung
786-0 renal = tested on: 786-0 renal
NCI-H23 lung = tested on: NCI-H23 lung
COLO 205 colon = tested on: COLO 205 colon
OVCAR-3 ovarian = tested on: OVCAR-3 ovarian
KM12 colon = tested on: KM12 colon
A498 renal = tested on: A498 renal
SN12C renal = tested on: SN12C renal
PC-3 prostate = tested on: PC-3 prostate
NCI/ADR-RES ovarian = tested on: NCI/ADR-RES ovarian
MDA-MB-435 = tested on: MDA-MB-435
SF-295 CNS = tested on: SF-295 CNS
MCF7 breast = tested on: MCF7 breast
SF-268 CNS = tested on: SF-268 CNS
SK-MEL-2 melanoma = tested on: SK-MEL-2 melanoma
SK-OV-3 ovarian = tested on: SK-OV-3 ovarian
SW-620 colon = tested on: SW-620 colon
HL-60(TB) leukemia = tested on: HL-60(TB) leukemia
HOP-62 NSCLC = tested on: HOP-62 NSCLC

With CC(=O)Nc1ccc2c(c1)oc(=O)c1cc(NC(C)=O)ccc12 the GI50 (UACC-257 melanoma) was over 100 µM, the TGI (UACC-257 melanoma) was over 100 µM and the GI50 (SF-539 CNS) was over 100 µM. The TGI (SF-539 CNS) was over 100 µM, the GI50 (HCT-116 colon) was 80.8 µM and the TGI (HCT-116 colon) was over 100 µM. The GI50 (OVCAR-8 ovarian) was over 100 µM, the TGI (OVCAR-8 ovarian) was over 100 µM and the GI50 (K-562 leukemia) was over 100 µM. For the same compound, the TGI (K-562 leukemia) was over 100 µM, the GI50 (MDA-MB-231 breast) was 48.5 µM and the TGI (MDA-MB-231 breast) was over 100 µM. The GI50 (EKVX NSCLC) was over 100 µM, the TGI (EKVX NSCLC) was over 100 µM and the GI50 (NCI-H522 lung) was 55.7 µM. The TGI (NCI-H522 lung) was over 100 µM, the GI50 (M14 melanoma) was 91.6 µM and the TGI (M14 melanoma) was over 100 µM. It also gave a GI50 (ACHN renal) of over 100 µM, a TGI (ACHN renal) of over 100 µM and a GI50 (SK-MEL-5 melanoma) of 96.5 µM. The TGI (SK-MEL-5 melanoma) was over 100 µM, the GI50 (SNB-19 CNS) was over 100 µM and the TGI (SNB-19 CNS) was over 100 µM. The GI50 (HCT-15 colon) was over 100 µM, the TGI (HCT-15 colon) was over 100 µM and the GI50 (RXF 393 renal) was over 100 µM. For the same compound, the TGI (RXF 393 renal) was over 100 µM, the GI50 (HS 578T breast) was 63.4 µM and the TGI (HS 578T breast) was over 100 µM. It also gave a GI50 (T-47D breast) of 59.6 µM, a TGI (T-47D breast) of over 100 µM and a GI50 (BT-549 breast) of over 100 µM. The TGI (BT-549 breast) was over 100 µM, the GI50 (RPMI-8226 leukemia) was 52.8 µM and the TGI (RPMI-8226 leukemia) was over 100 µM. The GI50 (HT29 colon) was 54 µM, the TGI (HT29 colon) was over 100 µM and the GI50 (DU-145 prostate) was over 100 µM. It also gave a TGI (DU-145 prostate) of over 100 µM, a GI50 (HCC-2998 colon) of 52.4 µM and a TGI (HCC-2998 colon) of over 100 µM. For the same compound, the GI50 (OVCAR-4 ovarian) was over 100 µM, the TGI (OVCAR-4 ovarian) was over 100 µM and the GI50 (IGROV1 ovarian) was 83.4 µM. It also gave a TGI (IGROV1 ovarian) of over 100 µM, a GI50 (OVCAR-5 ovarian) of over 100 µM and a TGI (OVCAR-5 ovarian) of over 100 µM. It also gave a GI50 (A549 NSCLC) of over 100 µM, a TGI (A549 NSCLC) of over 100 µM and a GI50 (MALME-3M melanoma) of 35.6 µM. It also gave a TGI (MALME-3M melanoma) of over 100 µM, a GI50 (UACC-62 melanoma) of 63.4 µM and a TGI (UACC-62 melanoma) of over 100 µM. It also gave a GI50 (TK-10 renal) of 98.7 µM, a TGI (TK-10 renal) of over 100 µM and a GI50 (U251 CNS) of over 100 µM. The TGI (U251 CNS) was over 100 µM, the GI50 (UO-31 renal) was over 100 µM and the TGI (UO-31 renal) was over 100 µM. It also gave a GI50 (HOP-92 NSCLC) of 29.6 µM, a TGI (HOP-92 NSCLC) of over 100 µM and a GI50 (NCI-H226 lung) of over 100 µM. It also gave a TGI (NCI-H226 lung) of over 100 µM, a GI50 (SK-MEL-28 melanoma) of over 100 µM and a TGI (SK-MEL-28 melanoma) of over 100 µM. It also gave a GI50 (CAKI-1 renal) of over 100 µM, a TGI (CAKI-1 renal) of over 100 µM and a GI50 (SR leukemia) of 8.52 µM. The TGI (SR leukemia) was 77.4 µM, the GI50 (SNB-75 CNS) was over 100 µM and the TGI (SNB-75 CNS) was over 100 µM. For the same compound, the GI50 (LOX IMVI melanoma) was 75.6 µM, the TGI (LOX IMVI melanoma) was over 100 µM and the GI50 (MOLT-4 leukemia) was 18.9 µM. For the same compound, the TGI (MOLT-4 leukemia) was over 100 µM, the GI50 (NCI-H460 lung) was over 100 µM and the TGI (NCI-H460 lung) was over 100 µM. It also gave a GI50 (786-0 renal) of over 100 µM, a TGI (786-0 renal) of over 100 µM and a GI50 (NCI-H23 lung) of over 100 µM. It also gave a TGI (NCI-H23 lung) of over 100 µM, a GI50 (COLO 205 colon) of 41.7 µM and a TGI (COLO 205 colon) of over 100 µM. The GI50 (OVCAR-3 ovarian) was over 100 µM, the TGI (OVCAR-3 ovarian) was over 100 µM and the GI50 (KM12 colon) was 21.7 µM. It also gave a TGI (KM12 colon) of 52.5 µM, a GI50 (A498 renal) of over 100 µM and a TGI (A498 renal) of over 100 µM. It also gave a GI50 (SN12C renal) of 29.6 µM, a TGI (SN12C renal) of over 100 µM and a GI50 (PC-3 prostate) of 92.4 µM. The TGI (PC-3 prostate) was over 100 µM, the GI50 (NCI/ADR-RES ovarian) was over 100 µM and the TGI (NCI/ADR-RES ovarian) was over 100 µM. For the same compound, the GI50 (MDA-MB-435) was over 100 µM, the TGI (MDA-MB-435) was over 100 µM and the GI50 (SF-295 CNS) was over 100 µM. It also gave a TGI (SF-295 CNS) of over 100 µM, a GI50 (MCF7 breast) of 59.8 µM and a TGI (MCF7 breast) of over 100 µM. It also gave a GI50 (SF-268 CNS) of 50.5 µM, a TGI (SF-268 CNS) of over 100 µM and a GI50 (SK-MEL-2 melanoma) of over 100 µM. For the same compound, the TGI (SK-MEL-2 melanoma) was over 100 µM, the GI50 (SK-OV-3 ovarian) was over 100 µM and the TGI (SK-OV-3 ovarian) was over 100 µM. It also gave a GI50 (SW-620 colon) of over 100 µM, a TGI (SW-620 colon) of over 100 µM and a GI50 (HL-60(TB) leukemia) of 41.3 µM. The TGI (HL-60(TB) leukemia) was over 100 µM, the GI50 (HOP-62 NSCLC) was over 100 µM and the TGI (HOP-62 NSCLC) was over 100 µM.
